The text below walks through data of US6455576B1, “Macrolides with anti-inflammatory activity” (Zambon Group S.p.A., priority 1999, dated 2002).

The subject of one experiment is superoxide anion release. The experiment can be described thus: In vitro inhibition of FMLP-stimulated superoxide anion release from neutrophils (Lucigenin-enhanced chemiluminescence). Type of experiment: cell-based, human. Particulars: neutrophils of healthy volunteers, 30 minutes pre-incubation at 37° C., FLMP stimulation, read-out: O2 release IC50. Here is the method:
B) Release of Superoxide Anions
Neutrophils were separated from venous blood of healthy volunteers by centrifugation on Ficoll-Hypaque, followed by sedimentation on 6% dextrane and osmotic lysis of erythrocytes. Neutrophils were then washed and resuspended in a medium made of RPMI-1640 supplemented with 5% foetal calf serum and 1.34 mmoles/l of disodium dihydrate EDTA. The cells were maintained for 24 hours at 4° C. and before the test the suspension was centrifugated and resuspended in HBSS (Hanks' balanced salt solution). The vitality and the purity of the neutrophil preparation was verified by dyeing with Trypan blue and Turk blue.
The superoxide anions were measured by using Lucigenin (bis-N-methylacridinium nitrate)-enhanced chemiluminescence technique.
Neutrophils (2×10^6 cells/ml) were pre-incubated for 30 minutes at 37° C. in 900 µl of HBSS with and without the tested compound (reading system).
The production of superoxide anions was measured with a Lumac/3M bio-counter after addition of 100 µl of a solution in HBSS of Lucigenin (2 mmoles/l) and N-formyl-L-methionyl-L-leucyl-L-phenylalanine (FLMP) as stimulating agent at the concentration of […] to the reading system. FLMP was dissolved in DMSO (1×10^−2 M) and further diluted in HBSS. The compound to be tested was dissolved in DMSO at the concentration of 10^−2 M. Lower concentrations, in DMSO, were prepared from that solution, and tested. The DMSO amount present in the reading system was lower than 1%.
The luminosity values obtained at the peak, for each tested concentration of the compound, were transformed in inhibition percentage in comparison with the reference.
The concentration able to inhibit the production of superoxide anion at 50% (IC50) was calculated from the obtained “dose-response” curve.

A further experiment deals with IL-8 release. The experiment can be described thus: In vitro inhibition of LPS-induced IL-8 release in ECV304 endothelial cells (ELISA). It is filed as cell-based, human. The note with it: for IC50: 1 hour pre-incubation, supernatant after one night, concentration giving 50% of highest obtainable inhibition, read-out: IL-8 release potency IC50; for IL-8 release efficacy (%): highest obtainable inhibition. As to the method:
A) Release of Interleukin 8 (IL-8)
A human endothelial immortalized cell line (ECV304) was obtained from ATTC (Rockville, Md.) and grown in Medium 199, mod. Earle's salts (GIBCO, Life Technologies, Grand Island, N.Y.), supplemented with 20% Fetal Calf Serum (GIBCO), 100 U/ml of penicillin and 100 µg/ml of streptomycin (SIGMA, St. Louis, Mo.) in wet atmosphere with 5% CO2 at 37° C.
The cells were cultivated on 96 well plates up to obtain a confluent monolayer. The compounds to be evaluated were dissolved in DMSO at 10^−2M and diluted with culture medium.
The compounds were pre-incubated with the cells 1 hour before the challenge.
The release of IL-8 was induced by adding 0.66 µg/ml of lipopolysaccharide B (E. coli 055:B5, Difco, Detroit, Mich.) in a final volume of 200 µl.
After one night, the supernatant was collected for the IL-8 test.
The specific immunoreactivity for IL-8 in the culture supernatant was measured with ELISA kit (Amersham, UK).
Results were expressed as the highest obtainable inhibition (efficacy) and, whether possible, as the concentration at which 50% of such effect (TC50) is obtained.
On the technique in general: An ELISA detects its analyte on a solid surface through an enzyme-linked reagent.

In experiment [1] the test system is neutrophilia induced by LPS. The experiment in a line: In vivo inhibition of neutrophilia induced by LPS after repeated administrations (bronchoalveolar lavage). Also noted: species or system rat. Particulars: Sprague-Dawley rats, compound i.p. twice a day for 6 days and 7th day 1 hour before and 5 hours after LPS 6 mg/kg i.p.; BALF 24 hours after LPS. As to the method:
In vivo Pharmacological Activity
Male Sprague-Dawley rats weighing between 200 and 300 g were used.
The rats used in the experiments were not evidently infected. The animals were maintained in standard conditions for 7 days before being sacrificed.
LPS (E. coli lipopolisaccharide) (endotoxin; 055:B5 serum-type; Sigma Chemical Co., St. Louis, Mo.) was dissolved in saline sterile solution and was administered by intraperitoneal injection (i.p.) at a dose of 6 mg/kg (1 ml/kg). Analogously the saline solution and/or the carrier (saline solution+0.5% Tween 20) were injected into the control animals.
Compound Administration (Prophylactic Treatment)
Each compound was administered by i.p. injection twice a day for 6 days, the 7th day 1 hour before and 5 hours after LPS administration. The compounds were suspended with 0.5% Tween 20 in the saline solution.
After 24 hours from the LPS injection rats were sacrificed with an overdose of nembutal (100 mg/kg i.p.). The trachea was incannulated and the lung was washed by instilling two 5 ml aliquots of PBS (phosphate buffer saline) at 37° C. and the fluid was immediately removed. The fluid was again injected and the procedure was altogether repeated three times for each aliquot.
Cell Counting and Differentiation
200 μl of BALF (bronchoalveolar lavage fluid) were diluted in 1 ml of cold water and 19 ml of Isoton. The overall number of cells was counted twice by using Contraves autolyser 800. When the total number was lower than 2000, BALFs were centrifugated at 800 rpm for 10 minutes in order to separate the cells from the supernatant. The supernatants were discharged and the cells resuspended in a small amount of PBS. For the cytological evaluation, 50 μl of the solution with the resuspended cells were centrifugated for 1 minute at 1300 rpm by using a Shandon Cytospin centrifuge. The slides were fixed in acetone and dyed with DiffQuick. The differential counts of cells were performed on each slide by counting 200 cells at random; cellular types were classified as neutrophils, eosinophils and mononuclear cells according to morphological standard criteria.

The mark [2] stands for this setting: Homo sapiens, ECV-304, LPS 0.66 μg/ml.

Read-outs that look alike come from different tables or passages of the source.

The term IC50 denotes the midpoint of a concentration-inhibition curve. Consider “3′-de(dimethylamino)-erythromycin A (E)-9-O-[2-methoxy-ethoxy]-methyl]-oxime] [Compound 5]”, for which the values for the half-inhibitory concentration (IC50) in the experiment with superoxide anion release and in the experiment with IL-8 release (LPS 0.66 μg/ml) were more than 100 µM and 12 µM, respectively. In addition, the “IL-8 release efficacy (%)” value with IL-8 release (LPS 0.66 μg/ml) came to 55 ± 0.9%.

For the compound “3′-de(dimethylamino)-erythromycin A (E)-9-[O-[2-[6-[(thiazol-2-ylmethyl)-amino]-hexyl-amino]-ethyl]-oxime] [Compound 8]”, in the experiment with superoxide anion release, the 50% inhibitory concentration (IC50) worked out at 3.5 ± 0.2 µM. The “IL-8 release efficacy (%)” value in the experiment on IL-8 release (LPS 0.66 μg/ml) is 19 ± 1%.

As for “3′-de(dimethylamino)-erythromycin A (E)-9-[O-[2-[(6-amino-hexyl)-amino]-ethyl]-oxime] [Compound 6]”, the “Inhibition (%)” value in experiment [1] is −11%. For the same compound, the IC50 with superoxide anion release stood at 9.9 ± 0.69 µM. In the experiment with IL-8 release (LPS 0.66 μg/ml), the concentration for half-maximal inhibition (IC50) is 7.7 ± 0.3 µM and the “IL-8 release efficacy (%)” value worked out at 37 ± 10%.

Consider “3′-de(dimethylamino)erythromycin A (E)-9-[O-[2-[6-(benzylamino)-hexylamino]-ethyl]-oxime] [Compound 9]”, for which, in experiment [1], the “Inhibition (%)” value is given as −96%. Further, the IC50 with superoxide anion release amounted to 3.5 ± 0.5 µM.

Regarding `CCC1OC(=O)C(C)C(OC2CC(C)(OC)C(O)C(C)O2)C(C)C(OC2OC(C)C=CC2O)C(C)(O)CC(C)C(=NO)C(C)C(O)C1(C)O` (stereo not shown) [Compound 1, 3′-de(dimethylamino)-3′,4′-dehydro-erythromycin A Oxime], the 50% inhibitory concentration (IC50) in the experiment on superoxide anion release was found to be 35.3 ± 5.4 µM. Further, the “IL-8 release efficacy (%)” value in the experiment with IL-8 release (LPS 0.66 μg/ml) was found to be 29%.

In the case of `CC[C@H]1OC(=O)[C@H](C)[C@@H](O[C@H]2C[C@@](C)(OC)[C@@H](O)[C@H](C)O2)[C@H](C)[C@@H](O[C@@H]2O[C@H](C)CC[C@H]2O)[C@](C)(O)C[C@@H](C)C(=NO)[C@H](C)[C@@H](O)[C@]1(C)O` [Compound 2, 3′-de(dimethylamino)-erythromycin A Oxime], the “Inhibition (%)” value in experiment [1] was −31%. The 50% inhibitory concentration (IC50) with superoxide anion release is 11.4 ± 2.9 µM. In addition, in the experiment on IL-8 release (LPS 0.66 μg/ml), the “IL-8 release efficacy (%)” value is listed as 29%.

`CCC1OC(=O)C(C)C(OC2CC(C)(OC)C(O)C(C)O2)C(C)C(OC2OC(C)CCC2O)C(C)(O)CC(C)C(=NOCCOCCNCc2ccccc2)C(C)C(O)C1(C)O` (stereo not shown) [Compound 11, 3′-de(dimethylamino)-erythromycin A (E)-9-[O-[2-[2-(benzylaminol)-ethoxy]-ethyl]-oxime]]: in the experiment on superoxide anion release, the IC50 came to 5 µM. In the experiment with IL-8 release (LPS 0.66 μg/ml), the “IL-8 release efficacy (%)” value stood at 22 ± 4%.

Regarding `CCC1OC(=O)C(C)C(OC2CC(C)(OC)C(O)C(C)O2)C(C)C(OC2OC(C)CCC2O)C(C)(O)CC(C)C(=NOCCNCCNCc2nccs2)C(C)C(O)C1(C)O` (stereo not shown) [Compound 16, 3′-de(dimethylamino)-erythromycin A (E)-9-[O-[2-[2-[(thiazol-2-ylmethyl)-amino]-ethyl-amino]-ethyl]-oxime]], the IC50 in the experiment with superoxide anion release amounted to 14.3 µM. Moreover, the “IL-8 release efficacy (%)” value with IL-8 release (LPS 0.66 μg/ml) was determined as 35%.

Take `CC[C@H]1OC(=O)[C@H](C)[C@@H](O[C@H]2C[C@@](C)(OC)[C@@H](O)[C@H](C)O2)[C@H](C)[C@@H](O[C@@H]2O[C@H](C)C[C@H](N(C)C)[C@H]2O)[C@](C)(OC)C[C@@H](C)C(=O)[C@H](C)[C@@H](O)[C@]1(C)O` [clarithromycin, reference compound]: in experiment [1], the “Inhibition (%)” value was −47%. Moreover, the half-maximal inhibitory concentration (IC50) came to 49.2 ± 1.9 µM with superoxide anion release (Homo sapiens, Neutrophil) and 8.9 ± 3.2 µM in the experiment with IL-8 release (setting [2]). For the same compound, the “IL-8 release efficacy (%)” value in the experiment on IL-8 release (LPS 0.66 μg/ml) is reported as 48 ± 6%.

For `CC[C@H]1OC(=O)[C@H](C)[C@@H](O[C@H]2C[C@@](C)(OC)[C@@H](O)[C@H](C)O2)[C@H](C)[C@@H](O[C@@H]2O[C@H](C)C[C@H](N(C)C)[C@H]2O)[C@](C)(O)C[C@@H](C)C(=O)[C@H](C)[C@@H](O)[C@]1(C)O` [erythromycin, reference compound], the “Inhibition (%)” value in experiment [1] was −46%. The IC50 with superoxide anion release (Homo sapiens, Neutrophil) was more than 100 µM. Also, in the experiment on IL-8 release (LPS 0.66 μg/ml), the “IL-8 release efficacy (%)” value is given as 27 ± 1%.

As for `CC[C@H]1OC(=O)[C@H](C)[C@@H](O[C@H]2C[C@@](C)(OC)[C@@H](O)[C@H](C)O2)[C@H](C)[C@@H](O[C@@H]2O[C@H](C)C[C@H](N(C)C)[C@H]2O)[C@](C)(O)C[C@@H](C)/C(=N\OCOCCOC)[C@H](C)[C@@H](O)[C@]1(C)O` [roxithromycin, reference compound], in experiment [1], the “Inhibition (%)” value is recorded as −50%. The IC50 in the experiment on superoxide anion release (Homo sapiens, Neutrophil) came out at 89 ± 5 µM; in the experiment with IL-8 release (setting [2]), 5.5 ± 1.5 µM. Further, the “IL-8 release efficacy (%)” value with IL-8 release (LPS 0.66 μg/ml) is recorded as 43 ± 6%.
